Test results reported in patent US20220389422A1, “IONIZABLE CATIONIC LIPIDS FOR RNA DELIVERY” (Arcturus Therapeutics, Inc., priority 2021, published 2022).

Columns and labels:
factor VII = experiment: Factor VII knock down evaluation (LNP with FVII siRNA); type: in vivo, Balb/C mice; conditions: intravenous, plasma FVII after 48 h, relative to saline-treated controls; for FVII KD % _ 0.01 mpk: 0.01 mg/kg; for FVII KD % _ 0.03 mpk: 0.03 mg/kg
Experimental: Lipid formulations comprising a FVII siRNA further described below were evaluated for their knockdown activity using the protocol of this example. In the FVII evaluation, seven to eight week-old, female Balb/C mice were purchased from Charles River Laboratories (Hollister, Calif.). The mice were held in a pathogen-free environment and all procedures involving the mice were performed in accordance with guidelines established by the Institutional Animal Care and Use Committee (IACUC). Lipid nanoparticles containing factor VII siRNA were administered intravenously at a dosing volume of 10 mL/kg and two dose levels (0.03 and 0.01 mg/kg). After 48 h, the mice were anesthetized with isoflurane and blood was collected retro-orbitally into Microtainer® tubes coated with 0.109 M sodium citrate buffer (BD Biosciences, San Diego, Calif.) and processed to plasma. Plasma specimens were tested for factor VII levels immediately or stored at −80° C. for later analysis. Measurement of FVII protein in plasma was determined using the colorimetric Biophen VII assay kit (Aniara Diagnostica, USA). Absorbance was measured at 405 nm and a calibration curve was generated using the serially diluted control plasma to determine levels of factor VII in plasma from treated animals, relative to the saline-treated control animals.

hEPO mRNA = hEPO mRNA expression evaluation (hEPO-LNPs); type: in vivo, Balb/c mice; conditions: intravenous (tail vein), serum hEPO after 6 hr, ELISA; for EPO expression (ng/mL)_0.03 mpk: 0.03 mg/kg; for EPO expression (ng/mL)_0.1 mpk: 0.1 mg/kg
Experimental: Protocol for hEPO mRNA Expression Evaluation Lipid formulations comprising a hEPO mRNA below were evaluated for their ability to express hEPO in vivo according to the protocol of this example. All animal experiments were conducted using institutionally-approved protocols (IACUC). In this protocol, female Balb/c mice at least 6-8 weeks of age were purchased from Charles River Laboratory. The mice were intravenously injected with hEPO-LNPs via the tail vein with one of two dose levels of hEPO (0.1 and 0.03 mg/kg). After 6 hr, blood was collected with serum separation tubes, and the serum was isolated by centrifugation. Serum hEPO levels were then measured using an ELISA assay (Human Erythropoietin Quantikine IVD ELISA Kit, R&D Systems, Minneapolis, Md.).

Measured pKa = type: physicochemical; conditions: read-out: (pKa) measured pKa in parenthesis
Mouse plasma stability = type: in vitro ADME, CD-1 mouse; conditions: 37° C., starting concentration 1 μM, 120 min, LC-MS
Experimental: Lipid stock solution was prepared by dissolution of the lipid in isopropanol at the concentration of 5 mg/mL. A requisite volume of the lipid-isopropanol solution was then diluted to 100 μM concentration at a total volume of 1.0 mL with in 50:50 (v/v) ethanol/water. Ten microliters of this 100 μM solution was spiked into 1.0 mL of mouse plasma (BioIVT, Cat. No.: MSE00PLNHUNN, CD-1 mouse, anticoagulant: sodium heparin, not filtered) that was pre-warmed to 37° C. and was stirred at 50 rpm with a magnetic stir bar. The starting concentration of lipids in plasma was thus 1 μM. At time points 0, 15, 30, 45, 60 and 120 min, 0.1 mL of the plasma was withdrawn from the reaction mixture and the protein was precipitated by adding 0.9 mL of ice-cold 4:1 (v/v) acetonitrile/methanol with 1 μg/mL of a selected internal standard lipid added. After filtration through a 0.45 micron 96-well filtering plate, the filtrates were analyzed by LC-MS (Thermo Fisher's Vanquish UHPLC-LTQ XL linear ion trap Mass Spectrometer); Waters XBridge BEH Shield RP18 2.5 µm (2.1×100 mm) column with its matching guard column. Mobile phase A was 0.1% formic acid in water, and mobile phase B was 0.1% formic acid in 1:1 (v/v) acetonitrile/methanol. Flow rate was […]. Elution gradient was: Time 0-1 min: 10% B; 1-6 min: 10%-95% B; 6-8.5 min: 95% B; 8.5-9 min: 95%-10% B; 9-10 min: 10% B. Mass spectrometry was in positive scanning mode from 600-1100 m/z. The peak of the molecular ion of the lipids was integrated in the extracted ion chromatography
(XIC) using Xcalibur software (Thermo Fisher). The relative peak area compared to T=0, after normalization by the peak area of the internal standard, was used as the percentage of the lipid remaining at each time point. T1/2 values were calculated using the first-order decay model.

[1] = In vivo biodegradability assay (lipid in mouse liver); set-up: species or system mice; conditions: for concentration at 48 h: 0.03 mg/Kg dose, read-out: In vivo degradability ng/g of tissue at 48 h_0.03 mpk; for In vivo degradability ng/tissue at 48 h_0.1 mpk: 48 h, 0.1 mg/Kg dose
Experimental: In vivo biodegradability assay was performed to assess the biodegradability of lipids in the LNP. Briefly, mice were injected with either 0.1 or 0.03 mg/Kg dose and after 24 or 48 hours mice livers were collected. To measure the concentration of lipids in the mouse liver, liver samples were homogenized in appropriate buffer in 1-10 dilution and mixed with the same amount of stabilized plasma. The samples were then mixed with organic solvents spiked with internal standard to precipitate proteins. After centrifugation, supernatant was diluted further with organic solvent before sample analysis by LC-MS. In LC-MS analysis, positive electrospray ionization was used, and multiple reaction monitoring (MRM) parameters were set up to specifically target the lipid analyte and internal standard. Calibration standards were prepared in stabilized plasma and mixed with same amount of homogenization buffer before protein precipitation. Quality control samples with known amounts of lipid was prepared in blank liver homogenate to monitor the precision and accuracy of the assay.

| SMILES | pKa (Measured pKa) | Percent of lipid remaining in mouse plasma after 2 h (Mouse plasma stability) | concentration at 48 h [1] | In vivo degradability ng/tissue at 48 h_0.1 mpk [1] | FVII KD % _ 0.01 mpk (factor VII) | FVII KD % _ 0.03 mpk (factor VII) | EPO expression (ng/mL)_0.03 mpk (hEPO mRNA) | EPO expression (ng/mL)_0.1 mpk (hEPO mRNA) |
| --- | --- | --- | --- | --- | --- | --- | --- | --- |
| CCCCCCC(CCCCCC)OC(=O)CCCCCC(CCCCCC(=O)OC(CCCCCC)CCCCCC)OC(=O)CCCN(C)C [ATX-209] |  | 80% | 0 ng/g | 647 ng/tissue | 65.7% | 90.6% | 65 ng/mL | 290 ng/mL |
| CCCCCCC(CCCCCC)COC(=O)CCCCCC(CCCCCC(=O)OCC(CCCCCC)CCCCCC)OC(=O)CCCN(C)C [ATX-231] |  | 89% | 0 ng/g | 0 ng/tissue | 72% | 86% | 1706 ng/mL | 5446 ng/mL |
| CCCCCCCC(CCCCCCC)OC(=O)CCCC(CCCC(=O)OC(CCCCC)CCCCC)OC(=O)CCCN(C)C (centres unmarked) [ATX-210] | 6.53 |  |  |  | 87% | 97.65% | 329 ng/mL | 662 ng/mL |
| CCCCCCCC(CCCCCCC)COC(=O)CCCC(CCCC(=O)OC(CCCCCCC)CCCCCCC)OC(=O)CCCN(C)C (centres unmarked) [ATX-232] |  |  |  |  | 74% | 90% | 2115 ng/mL | 510 ng/mL |

More lines, main results first:

| pKa (Measured pKa) | Percent of lipid remaining in mouse plasma after 2 h (Mouse plasma stability) | concentration at 48 h [1] | In vivo degradability ng/tissue at 48 h_0.1 mpk [1] | SMILES | FVII KD % _ 0.01 mpk (factor VII) | FVII KD % _ 0.03 mpk (factor VII) | EPO expression (ng/mL)_0.03 mpk (hEPO mRNA) | EPO expression (ng/mL)_0.1 mpk (hEPO mRNA) |
| --- | --- | --- | --- | --- | --- | --- | --- | --- |
| 6.78 |  |  |  | CCCCCCCC(CCCCCCC)OC(=O)CCCC(CCCC(=O)OC(CCCCCCC)CCCCCCC)COC(=O)CCCN(C)C [ATX-200, 1,9-bis(pentadecan-8-yl) 5-([[4-(dimethylamino)butanoyl]oxy]methyl) nonanedioate] | 87.1% | 97.5% | 494 ng/mL | 828 ng/mL |
| 6.74 |  |  |  | CCCCCCCC(CCCCCCC)OC(=O)CCC(CCC(=O)OC(CCCCCCC)CCCCCCC)COC(=O)CCCN(C)C [ATX-201] | 87.4% | 97.5% | 523 ng/mL | 680 ng/mL |
| 6.17 |  |  |  | CCCCCCCC(CCCCCCC)OC(=O)CCCC(CCCC(=O)OC(CCCCCCC)CCCCCCC)SC(=O)CCCN(C)C [ATX-202] | 61.42% | 83.22% | 447 ng/mL | 531 ng/mL |
| 6.35 |  |  |  | CCCCCCCC(CCCCCCC)OC(=O)CCCC(CCCC(=O)OC(CCCCCCC)CCCCCCC)OC(=O)CCCN(C)C [ATX-193, 1,9-bis(pentadecan-8-yl)5-[[4-(dimethylamino)butanoyl]oxy] nonanedioate] | 95.6% | 100% | 264 ng/mL | 498 ng/mL |
|  | 91% | 566 ng/g | 2613 ng/tissue | CCCCCC(CC)C(=O)OCCCCCCCCCC(CCCCCCCCCOC(=O)C(CC)CCCCC)OC(=O)CCCN(C)C (centres unmarked) [Compound-10111, reference compound] | 89% | 95% | 105 ng/mL | 213 ng/mL |
